Assay results reported in ChEMBL document CHEMBL1152140 (Bioorg Med Chem Lett, 2008).

Assays:
[1] = Inhibition of potato LOX5 by enzyme immuno assay; design: species or system Solanum tuberosum
[2] = system: Rattus norvegicus; assay: Antiinflammatory activity against carrageenan-induced orally dosed rat assessed paw edema after 3 hrs; format: functional; details: po
[3] = molecular target: T1, Prostaglandin G/H synthase 1 (Ovis aries, UniProt P05979)
T1 sequence (P05979 whole entry): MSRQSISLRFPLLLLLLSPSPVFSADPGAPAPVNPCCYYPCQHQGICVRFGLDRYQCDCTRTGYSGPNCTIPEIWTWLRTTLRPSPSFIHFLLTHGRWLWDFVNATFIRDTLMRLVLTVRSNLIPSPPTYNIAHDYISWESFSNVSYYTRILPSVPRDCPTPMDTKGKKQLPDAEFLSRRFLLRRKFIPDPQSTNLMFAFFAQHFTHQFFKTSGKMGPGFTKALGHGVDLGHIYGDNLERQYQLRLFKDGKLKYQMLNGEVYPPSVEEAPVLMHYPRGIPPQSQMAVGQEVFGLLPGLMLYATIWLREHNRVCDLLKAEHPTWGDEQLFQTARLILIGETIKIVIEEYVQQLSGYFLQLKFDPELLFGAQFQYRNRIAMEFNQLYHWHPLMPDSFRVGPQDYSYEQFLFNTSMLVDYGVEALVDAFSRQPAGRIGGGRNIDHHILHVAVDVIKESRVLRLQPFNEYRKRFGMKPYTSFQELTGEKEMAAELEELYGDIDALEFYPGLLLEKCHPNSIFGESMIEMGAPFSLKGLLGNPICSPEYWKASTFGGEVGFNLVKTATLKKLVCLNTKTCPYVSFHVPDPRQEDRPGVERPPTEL
Description: Inhibition of ovine COX1 by enzyme immuno assay

SMILES | IC50 [1] [µM] | ED50 [2] [mg/kg] | IC50 [3] [µM]
CS(=O)(=O)c1ccc(-n2nc(C(F)(F)F)cc2-c2ccn(O)c(=O)c2)cc1 | 0.35 | 66.9 | 13.2
O=C(O)/C=C/c1ccc(O)c(O)c1 [CAFFEIC ACID] | 3.47 |  | 
NS(=O)(=O)c1ccc(-n2nc(C(F)(F)F)cc2-c2ccn(O)c(=O)c2)cc1 | 4.9 | 99.8 | 10.2
Cc1ccc(-c2cc(C(F)(F)F)nn2-c2ccc(S(N)(=O)=O)cc2)cc1 [CELECOXIB] | > 10 |  | 
